The values below come from article PMC11855827, “High-Throughput Screening of Five Compound Libraries for Anthelmintic Activity and Toxicity Leads to the Discovery of Two Flavonoid Compounds” (International Journal of Molecular Sciences, 2025).

In the test the test system is C. elegans.
Where [1] appears, read: Table S2, C. elegans SS assay, 110 μM, 0 h, averages of 4 data points.
Setting [2] is: Table S2, C. elegans SS assay, 110 μM, 24 h, averages of 4 data points.

Read-outs that look alike come from different tables or passages of the source.

As to `COc1ccc(-c2oc3c(CC=C(C)C)c(O[C@@H]4O[C@H](CO)[C@@H](O)[C@H](O)[C@H]4O)cc(O)c3c(=O)c2O[C@@H]2O[C@@H](C)[C@H](O)[C@@H](O[C@@H]3O[C@H](CO)[C@@H](O)[C@H](O)[C@H]3O)[C@H]2O)cc1` [Epimedin A1], the “Percentage of motility inhibition 0 h” value under setting [1] is given as 6%. Also, the “Percentage of motility inhibition 24 h” value under setting [2] worked out at 5%.

On to `COc1ccc(-c2oc3c(CC=C(C)C)c(O[C@@H]4O[C@H](CO)[C@@H](O)[C@H](O)[C@H]4O)cc(O)c3c(=O)c2O[C@@H]2O[C@@H](C)[C@H](O)[C@@H](O)[C@H]2O[C@@H]2OC[C@@H](O)[C@H](O)[C@H]2O)cc1` [Epimedin B], for which, under setting [1], the “Percentage of motility inhibition 0 h” value was 15%. Under setting [2], the “Percentage of motility inhibition 24 h” value turned out to be 32%.

Consider `COc1ccc(-c2oc3c(CC=C(C)C)c(O[C@@H]4O[C@H](CO)[C@@H](O)[C@H](O)[C@H]4O)cc(O)c3c(=O)c2O[C@@H]2O[C@@H](C)[C@H](O)[C@@H](O)[C@H]2O[C@@H]2O[C@@H](C)[C@H](O)[C@@H](O)[C@H]2O)cc1` [Epmedin C], for which, under setting [1], the “Percentage of motility inhibition 0 h” value turned out to be 0%. In addition, the “Percentage of motility inhibition 24 h” value under setting [2] is reported as 0%.

Consider `C=C1C(=O)O[C@H]2[C@H]1CC[C@]1(C)O[C@@]13CC[C@@](C)(O)[C@H]23` [Epoxymicheliolide], for which, under setting [1], the “Percentage of motility inhibition 0 h” value amounted to 16%. For the same compound, the “Percentage of motility inhibition 24 h” value under setting [2] worked out at 24%.

For the compound `C[N+](C)(C)[C@@H](Cc1c[nH]c(=S)[nH]1)C(=O)[O-]` [Ergothioneine], the “Percentage of motility inhibition 0 h” value under setting [1] is reported as 16%. Moreover, the “Percentage of motility inhibition 24 h” value under setting [2] was 0%.

Regarding `O=C1C[C@@H](c2ccc(O)c(O)c2)Oc2cc(O[C@@H]3O[C@H](CO)[C@@H](O)[C@H](O)[C@H]3O)cc(O)c21` [Eriodictyol‐7‐O‐glucoside], the “Percentage of motility inhibition 0 h” value under setting [1] is given as 11%. Further, under setting [2], the “Percentage of motility inhibition 24 h” value is given as 4%.

Turning to `C[C@@H](O)[C@H]1C(=O)N2C(C(=O)[O-])=C(S[C@@H]3CN[C@H](C(=O)Nc4cccc(C(=O)O)c4)C3)[C@H](C)[C@H]12.[Na+]` [Ertapenem sodium], the “Percentage of motility inhibition 0 h” value under setting [1] amounted to 0%. For the same compound, the “Percentage of motility inhibition 24 h” value under setting [2] came to 0%.

`COC(=O)[C@@]1(C)CC[C@]2(C(=O)O)CC[C@]3(C)C(=CC[C@@H]4[C@@]5(C)C[C@H](O)[C@H](O[C@@H]6OC[C@@H](O[C@@H]7O[C@H](CO)[C@@H](O)[C@H](O)[C@H]7O)[C@H](O)[C@H]6O)[C@@](C)(CO)[C@@H]5CC[C@]43C)[C@@H]2C1` [Esculentoside A]: the “Percentage of motility inhibition 0 h” value under setting [1] is 17%. Also, the “Percentage of motility inhibition 24 h” value under setting [2] is on record as 3%.

Consider `COC(=O)[C@]1(C)CC[C@]2(C(=O)O[C@@H]3O[C@H](CO)[C@@H](O)[C@H](O)[C@H]3O)CC[C@]3(C)C(=CC[C@@H]4[C@@]5(C)C[C@H](O)[C@H](O[C@@H]6OC[C@@H](O[C@@H]7O[C@H](CO)[C@@H](O)[C@H](O)[C@H]7O)[C@H](O)[C@H]6O)[C@@](C)(CO)C5CC[C@]43C)[C@H]2C1` (some centres unmarked) [Esculentoside H], for which, under setting [1], the “Percentage of motility inhibition 0 h” value turned out to be 0%. For the same compound, the “Percentage of motility inhibition 24 h” value under setting [2] came out at 17%.

For the compound `CC[C@@H](CO)NCCN[C@@H](CC)CO.Cl.Cl` [Ethambutol (dihydrochloride)], the “Percentage of motility inhibition 0 h” value under setting [1] was found to be 26%. The “Percentage of motility inhibition 24 h” value under setting [2] was determined as 6%.

With `CCOC1c2c(ccc3c2OCO3)-c2ccc3cc4c(cc3c2N1C)OCO4` (centres unmarked) [Ethoxysanguinarine], the “Percentage of motility inhibition 0 h” value under setting [1] is 0%. In addition, under setting [2], the “Percentage of motility inhibition 24 h” value is listed as 31%.

In the case of `C=C1C(=O)O[C@@H]2/C=C(\C)[C@@H](OC(C)=O)C/C=C(\COC(C)=O)C[C@@H](OC(=O)/C(C)=C/CO)[C@@H]12` [Eupalinolide A], for the setting “110 µM”, the “Percentage of motility inhibition 0 h” value came to 11% and the “Percentage of motility inhibition 24 h” value turned out to be 38%.

As for `C=C1C(=O)O[C@@H]2/C=C(\C)[C@@H](OC(C)=O)C/C=C(\COC(C)=O)C[C@@H](OC(=O)/C(C)=C/CO)[C@@H]12` [Eupalinolide B], for the setting “110 µM”, the “Percentage of motility inhibition 0 h” value was 0% and the “Percentage of motility inhibition 24 h” value is on record as 0%.
